# Test system: 885512-296-R-J2-PDC complex spheroid viability
# Test: Anticancer human tumor 885512-296-R-J2-PDC patient-derived breast carcinoma cell line growth inhibition [GQUAD]
# Conditions: for IC50: curve of first compound; for viability, T/C: stronger effect = lower value
# In short: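 Tumor cells were grown as complex spheroids with HUVEC endothelial cells and mesenchymal stem cells as stroma. G-quadruplex stabilizers were combined with targeted agents over half-log dilutions from near the clinical Cmax, or from 10 microM.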
# [1] = second compound 0.0316 µM, first compound 0.0316 µM
# [2] = second compound 0.0316 µM, first compound 0.1 µM
# [3] = second compound 0.0316 µM, first compound 0.316 µM
# [4] = second compound 0.0316 µM, first compound 1 µM
# [5] = second compound 0.0316 µM, first compound 3.16 µM
# [6] = second compound 0.0316 µM, first compound 10 µM
# [7] = second compound 0.1 µM, first compound 0.0316 µM
# [8] = second compound 0.1 µM, first compound 0.1 µM
# [9] = second compound 0.1 µM, first compound 0.316 µM
# [10] = second compound 0.1 µM, first compound 1 µM
# [11] = second compound 0.1 µM, first compound 3.16 µM
# [12] = second compound 0.1 µM, first compound 10 µM
# [13] = second compound 0.316 µM, first compound 0.0316 µM
# [14] = second compound 0.316 µM, first compound 0.1 µM
# [15] = second compound 0.316 µM, first compound 0.316 µM
# [16] = second compound 0.316 µM, first compound 1 µM
# [17] = second compound 0.316 µM, first compound 3.16 µM
# [18] = second compound 0.316 µM, first compound 10 µM
# [19] = second compound 1 µM, first compound 0.0316 µM
# [20] = second compound 1 µM, first compound 0.1 µM
# [21] = second compound 1 µM, first compound 0.316 µM
# [22] = second compound 1 µM, first compound 1 µM
# [23] = second compound 1 µM, first compound 3.16 µM
# [24] = second compound 1 µM, first compound 10 µM
# [25] = second compound 3.16 µM, first compound 0.0316 µM
# [26] = second compound 3.16 µM, first compound 0.1 µM
# [27] = second compound 3.16 µM, first compound 0.316 µM
# [28] = second compound 3.16 µM, first compound 1 µM
# [29] = second compound 3.16 µM, first compound 3.16 µM
# [30] = second compound 3.16 µM, first compound 10 µM
# [31] = second compound 10 µM, first compound 0.0316 µM
# [32] = second compound 10 µM, first compound 0.1 µM
# [33] = second compound 10 µM, first compound 0.316 µM
# [34] = second compound 10 µM, first compound 1 µM
# [35] = second compound 10 µM, first compound 3.16 µM
# [36] = second compound 10 µM, first compound 10 µM
# 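Also: spheroids exposed to the compounds for one week.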
# 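For viability, T/C in this document: percent of tumor spheroid viability relative to DMSO vehicle control wells.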
smiles,measurement,setting,value
Nc1ccn(C2OC(CO)C(O)C2(F)F)c(=O)n1 (stereo not drawn) + Cc1cnc(CNC(=O)c2c(=O)c3ccc(N4CCCN(C)CC4)nc3n3c2sc2ccccc23)cn1,IC50,second compound 0.0316 µM,< 31.6 nM
same,IC50,second compound 0.1 µM,< 31.6 nM
same,IC50,second compound 0.316 µM,< 31.6 nM
same,IC50,second compound 1 µM,< 31.6 nM
same,IC50,second compound 3.16 µM,< 31.6 nM
same,IC50,second compound 10 µM,< 31.6 nM
same,"viability, T/C",[1],11.4%
same,"viability, T/C",[2],3.66%
same,"viability, T/C",[3],4.41%
same,"viability, T/C",[4],3.92%
same,"viability, T/C",[5],3.56%
same,"viability, T/C",[6],4.33%
same,"viability, T/C",[7],8.53%
same,"viability, T/C",[8],4.24%
same,"viability, T/C",[9],3.88%
same,"viability, T/C",[10],5.21%
same,"viability, T/C",[11],4.05%
same,"viability, T/C",[12],3.9%
same,"viability, T/C",[13],8.35%
same,"viability, T/C",[14],8.14%
same,"viability, T/C",[15],5.18%
same,"viability, T/C",[16],2.76%
same,"viability, T/C",[17],5.29%
same,"viability, T/C",[18],4.05%
same,"viability, T/C",[19],9.41%
same,"viability, T/C",[20],7.02%
same,"viability, T/C",[21],3.55%
same,"viability, T/C",[22],3.31%
same,"viability, T/C",[23],4.27%
same,"viability, T/C",[24],3.59%
same,"viability, T/C",[25],4.08%
same,"viability, T/C",[26],0.41%
same,"viability, T/C",[27],0.15%
same,"viability, T/C",[28],0.1%
same,"viability, T/C",[29],0.12%
same,"viability, T/C",[30],0.14%
same,"viability, T/C",[31],0.09%
same,"viability, T/C",[32],0.15%
same,"viability, T/C",[33],0.14%
same,"viability, T/C",[34],0.11%
same,"viability, T/C",[35],0.15%
same,"viability, T/C",[36],0.16%
Cc1[nH]c2ccccc2c1CCNCc1ccc(/C=C/C(=O)NO)cc1 + CN(C)c1ccc(Nc2c3ccc(NC(=O)CCN4CCCC4)cc3nc3cc(NC(=O)CCN4CCCC4)ccc23)cc1,IC50,second compound 0.0316 µM,26.3 nM
same,IC50,second compound 0.1 µM,24.8 nM
same,IC50,second compound 0.316 µM,20.3 nM
same,IC50,second compound 1 µM,30.8 nM
same,IC50,second compound 3.16 µM,8.45 nM
same,IC50,second compound 10 µM,< 0.999 nM
same,"viability, T/C","second compound 0.0316 µM, first compound 0.000999 µM",96.5%
same,"viability, T/C","second compound 0.0316 µM, first compound 0.00316 µM",84.1%
same,"viability, T/C","second compound 0.0316 µM, first compound 0.00999 µM",70.8%
same,"viability, T/C",[1],40.1%
same,"viability, T/C","second compound 0.0316 µM, first compound 0.0999 µM",30.1%
same,"viability, T/C",[3],3.59%
same,"viability, T/C","second compound 0.1 µM, first compound 0.000999 µM",95.6%
same,"viability, T/C","second compound 0.1 µM, first compound 0.00316 µM",91.7%
same,"viability, T/C","second compound 0.1 µM, first compound 0.00999 µM",64.8%
same,"viability, T/C",[7],44.1%
same,"viability, T/C","second compound 0.1 µM, first compound 0.0999 µM",25.3%
same,"viability, T/C",[9],4.19%
same,"viability, T/C","second compound 0.316 µM, first compound 0.000999 µM",103%
same,"viability, T/C","second compound 0.316 µM, first compound 0.00316 µM",93.2%
same,"viability, T/C","second compound 0.316 µM, first compound 0.00999 µM",63%
same,"viability, T/C",[13],35.9%
same,"viability, T/C","second compound 0.316 µM, first compound 0.0999 µM",28.6%
same,"viability, T/C",[15],4.61%
same,"viability, T/C","second compound 1 µM, first compound 0.000999 µM",85.7%
same,"viability, T/C","second compound 1 µM, first compound 0.00316 µM",94.4%
same,"viability, T/C","second compound 1 µM, first compound 0.00999 µM",63.7%
same,"viability, T/C",[19],48%
same,"viability, T/C","second compound 1 µM, first compound 0.0999 µM",29.5%
same,"viability, T/C",[21],4.03%
same,"viability, T/C","second compound 3.16 µM, first compound 0.000999 µM",80%
same,"viability, T/C","second compound 3.16 µM, first compound 0.00316 µM",64.7%
same,"viability, T/C","second compound 3.16 µM, first compound 0.00999 µM",46.5%
same,"viability, T/C",[25],30.1%
same,"viability, T/C","second compound 3.16 µM, first compound 0.0999 µM",24.6%
same,"viability, T/C",[27],5.49%
same,"viability, T/C","second compound 10 µM, first compound 0.000999 µM",18.2%
same,"viability, T/C","second compound 10 µM, first compound 0.00316 µM",17.7%
same,"viability, T/C","second compound 10 µM, first compound 0.00999 µM",11.3%
same,"viability, T/C",[31],10.3%
same,"viability, T/C","second compound 10 µM, first compound 0.0999 µM",13%
same,"viability, T/C",[33],2.87%
CCCS(=O)(=O)Nc1ccc(F)c(C(=O)c2c[nH]c3ncc(-c4ccc(Cl)cc4)cc23)c1F + CN(C)c1ccc(Nc2c3ccc(NC(=O)CCN4CCCC4)cc3nc3cc(NC(=O)CCN4CCCC4)ccc23)cc1,IC50,second compound 0.0316 µM,8180 nM
same,IC50,second compound 0.1 µM,7890 nM
same,IC50,second compound 0.316 µM,8450 nM
same,IC50,second compound 1 µM,6700 nM
same,IC50,second compound 3.16 µM,3750 nM
same,IC50,second compound 10 µM,< 31.6 nM
same,"viability, T/C",[1],105%
same,"viability, T/C",[2],90%
same,"viability, T/C",[3],109%
same,"viability, T/C",[4],104%
same,"viability, T/C",[5],106%
same,"viability, T/C",[6],38.9%
same,"viability, T/C",[7],101%
same,"viability, T/C",[8],119%
same,"viability, T/C",[9],124%
same,"viability, T/C",[10],117%
same,"viability, T/C",[11],89%
same,"viability, T/C",[12],39.8%
same,"viability, T/C",[13],118%
same,"viability, T/C",[14],102%
same,"viability, T/C",[15],111%
same,"viability, T/C",[16],104%
same,"viability, T/C",[17],104%
same,"viability, T/C",[18],40.7%
same,"viability, T/C",[19],95%
same,"viability, T/C",[20],102%
same,"viability, T/C",[21],103%
same,"viability, T/C",[22],94.1%
same,"viability, T/C",[23],119%
same,"viability, T/C",[24],21.9%
same,"viability, T/C",[25],117%
same,"viability, T/C",[26],104%
same,"viability, T/C",[27],126%
same,"viability, T/C",[28],111%
same,"viability, T/C",[29],57.6%
same,"viability, T/C",[30],6.03%
same,"viability, T/C",[31],17.6%
same,"viability, T/C",[32],16.4%
same,"viability, T/C",[33],15.7%
same,"viability, T/C",[34],14.2%
same,"viability, T/C",[35],8.35%
same,"viability, T/C",[36],1.3%
O=c1[nH]cc(F)c(=O)[nH]1 + Cc1cnc(CNC(=O)c2c(=O)c3ccc(N4CCCN(C)CC4)nc3n3c2sc2ccccc23)cn1,IC50,second compound 0.0316 µM,> 10000 nM
same,IC50,second compound 0.1 µM,> 10000 nM
same,IC50,second compound 0.316 µM,< 31.6 nM
same,IC50,second compound 1 µM,< 31.6 nM
same,IC50,second compound 3.16 µM,< 31.6 nM
same,IC50,second compound 10 µM,< 31.6 nM
same,"viability, T/C",[1],90.9%
same,"viability, T/C",[2],75.9%
same,"viability, T/C",[3],87.1%
same,"viability, T/C",[4],69.5%
same,"viability, T/C",[5],59.4%
same,"viability, T/C",[6],52.1%
same,"viability, T/C",[7],68.3%
same,"viability, T/C",[8],70.2%
same,"viability, T/C",[9],54.4%
same,"viability, T/C",[10],66.3%
same,"viability, T/C",[11],51.1%
same,"viability, T/C",[12],56.8%
same,"viability, T/C",[13],30%
same,"viability, T/C",[14],27.2%
same,"viability, T/C",[15],23.6%
same,"viability, T/C",[16],19.8%
same,"viability, T/C",[17],38%
same,"viability, T/C",[18],36.1%
same,"viability, T/C",[19],29.9%
same,"viability, T/C",[20],28.4%
same,"viability, T/C",[21],26.4%
same,"viability, T/C",[22],28%
same,"viability, T/C",[23],23.1%
same,"viability, T/C",[24],27.6%
same,"viability, T/C",[25],23.5%
same,"viability, T/C",[26],27.8%
same,"viability, T/C",[27],22.4%
same,"viability, T/C",[28],20.4%
same,"viability, T/C",[29],29.4%
same,"viability, T/C",[30],24.1%
same,"viability, T/C",[31],0.1%
same,"viability, T/C",[32],0.16%
same,"viability, T/C",[33],0.21%
same,"viability, T/C",[34],0.13%
same,"viability, T/C",[35],0.19%
same,"viability, T/C",[36],0.16%

# Reference: PubChem BioAssay AID2060490 (Molecular Pharmacology Branch, DTP, NCI, 2025)
